# Measurements as given in patent publication US20240166693A1, “METHODS AND COMPOUNDS FOR MODULATING MYOTONIC DYSTROPY 1” (Design Therapeutics, Inc., priority 2020, published 2024).
# Read-outs that look alike come from different tables or passages of the source. Starred links: 1 amine or outer side, 2 acyl side, 3 side chain; linkers in the order of their positions; H or OH if unused. Positions of bridges follow the written chain, without caps; N, C: chain ends. Non-standard residues stand in square brackets, D forms with d. Residues, ends and D or L forms follow the SMILES beside them. Chains are numbered I, II in the order given. *: point of attachment. ImPyβIm = Cn1cc(NC(=O)c2nccn2C)cc1C(=O)NCCC(=O)Nc1cn(C)c(C(=O)*)n1; HN(CH2CH2O)5CH2CH2NH = C(COCCOCCOCCOCCOCCN[*:2])N[*:1]; 4Amino1MeIm2CO = Cn1cc(N[*:1])nc1C(=O)[*:2]; Benzoyl(4-tBu) = CC(C)(C)c1ccc(C(=O)*)cc1; Lys(Et2) = CCN(CC)CCCC[C@H](N)C(=O)O; X1 = Cn1cc(N[*:1])cc1C(=O)[*:2]; dDab = NCC[C@@H](N)C(=O)O
# System: Myotonic Dystrophy 1 affected patient fibroblasts (Coriell GM04602; 1600 CTG repeats)
# Assay: DM1 foci reduction assay (CAG10-Cy3 FISH, average foci per nucleus)
# Format: cell-based
# Details: Homo sapiens, Fibroblast
# Method in brief: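 DM1 patient fibroblasts (GM04602, 1600 CTG) treated 48 h at 37 °C, 8-point 1:3 dilutions from 3 μM top dose; wild-type GM07492 as control. PFA-fixed, ethanol-permeabilized cells hybridized overnight with 5 nM CAG10-Cy3 probe, DAPI-counterstained, imaged at 20× in 4 fields; average foci per nucleus per well.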
# [1] = DM1 fibroblasts, 48 h treatment, 8-point dose response, 3 μM top dose, read-out: Foci Reduction in Fibroblast EC50, 48 h
# [2] = 48 h, read-out: Foci Reduction in Fibroblast EC50, 48 h (nM)
Structure (SMILES),EC50 [1],EC50 [2]
COc1c(OCCOCCOCCOCCOCCOCCNC(=O)CCNC(=O)c2nc(NC(=O)c3cc(NC(=O)CCNC(=O)c4nc(NC(=O)CCCNC(=O)c5cc(NC(=O)c6nc(NC(=O)CCNC(=O)c7cc(NC(=O)c8nccn8C)cn7C)cn6C)cn5C)cn4C)cn3C)cn2C)cccc1C(=O)N1CCN(C(=O)COc2cccc(C)c2)CC1 [Compound 94],> 500 nM,–
COc1c(OCCOCCOCCOCCOCCOCCNC(=O)CCNC(=O)c2nc(NC(=O)c3cc(NC(=O)CCNC(=O)c4nc(NC(=O)CCCNC(=O)c5cc(NC(=O)c6nc(NC(=O)CCNC(=O)c7cc(NC(=O)c8nccn8C)cn7C)cn6C)cn5C)cn4C)cn3C)cn2C)cccc1C(=O)N1CCN(C(=O)COc2ccc(NC(N)=O)c(C)c2)CC1 [Compound 95],> 500 nM,–
CCN(CC)CCCC[C@H](NC(=O)[C@H](CC(C)C)NC(=O)[C@H](C)NC(=O)[C@H](Cc1ccccc1)NC(=O)c1ccc(C(C)(C)C)cc1)C(=O)N[C@@H](CO)C(=O)Nc1ccc(C#CC#CCNC(=O)CCNC(=O)c2nc(NC(=O)c3cc(NC(=O)CCNC(=O)c4nc(NC(=O)CCCNC(=O)c5cc(NC(=O)c6nc(NC(=O)CCNC(=O)c7cc(NC(=O)c8nccn8C)cn7C)cn6C)cn5C)cn4C)cn3C)cn2C)cc1 [Compound 96],–,< 100 nM
CCN(CC)CCCC[C@H](NC(=O)[C@H](CC(C)C)NC(=O)[C@H](C)NC(=O)[C@H](Cc1ccccc1)NC(=O)c1ccc(C(C)(C)C)cc1)C(=O)N[C@@H](CO)C(=O)NCCOCCNCC#CC#Cc1ccc(NC(=O)CCNC(=O)c2nc(NC(=O)c3cc(NC(=O)CCNC(=O)c4nc(NC(=O)CCCNC(=O)c5cc(NC(=O)c6nc(NC(=O)CCNC(=O)c7cc(NC(=O)c8nccn8C)cn7C)cn6C)cn5C)cn4C)cn3C)cn2C)cc1 [Compound 98],–,> 500 nM
CCN(CC)CCCC[C@H](NC(=O)CNC(=O)CNC(=O)CNC(=O)c1ccc(C(C)(C)C)cc1)C(=O)N[C@@H](CO)C(=O)NCCOCCOCCOCCOCCOCCNC(=O)CCNC(=O)c1nc(NC(=O)c2cc(NC(=O)CCNC(=O)c3nc(NC(=O)CCCNC(=O)c4cc(NC(=O)c5nc(NC(=O)CCNC(=O)c6cc(NC(=O)c7nccn7C)cn6C)cn5C)cn4C)cn3C)cn2C)cn1C [Compound 99],–,< 100 nM
CCN(CC)CCCC[C@H](NC(=O)[C@H](CC(C)C)NC(=O)[C@H](C)NC(=O)[C@H](Cc1ccccc1)NC(=O)c1ccc(C(C)(C)C)cc1)C(=O)N[C@@H](CO)C(=O)NCCOCCOCCOCCOCCOCCNC(=O)CCNC(=O)c1nc(NC(=O)c2cc(NC(=O)CCNC(=O)c3nc(NC(=O)[C@H](N)CCNC(=O)c4cc(NC(=O)c5nc(NC(=O)CCNC(=O)c6cc(NC(=O)c7nccn7C)cn6C)cn5C)cn4C)cn3C)cn2C)cn1C [Compound 101],–,100 to 500 nM
CCN(CC)CCCC[C@H](NC(=O)[C@H](CC(C)C)NC(=O)[C@H](C)NC(=O)[C@H](Cc1ccccc1)NC(=O)c1ccc(C(C)(C)C)cc1)C(=O)N[C@@H](CO)C(=O)NCCOCCOCCOCCOCCOCCNC(=O)CCNC(=O)c1nc(NC(=O)c2cc(NC(=O)CCNC(=O)c3nc(NC(=O)[C@@H](CCNC(=O)c4cc(NC(=O)c5nc(NC(=O)CCNC(=O)c6cc(NC(=O)c7nccn7C)cn6C)cn5C)cn4C)NC(C)=O)cn3C)cn2C)cn1C [Compound 102],–,100 to 500 nM
CCN(CC)CCCC[C@H](NC(=O)[C@H](CC(C)C)NC(=O)[C@H](C)NC(=O)[C@H](Cc1ccccc1)NC(=O)c1ccc(C(C)(C)C)cc1)C(=O)N[C@@H](CO)C(=O)NCCOCCOCCOCCOCCOCCNC(=O)c1nc(NC(=O)c2cc(NC(=O)CCNC(=O)c3nc(NC(=O)CCCNC(=O)c4nc(NC(=O)c5nc(CC(=O)CCNC(=O)c6cc(NC(=O)c7nccn7C)cn6C)cn5C)cn4C)cn3C)cn2C)cn1C [Compound 103],–,< 100 nM
CCN(CC)CCCC[C@H](NC(=O)[C@H](CC(C)C)NC(=O)[C@H](C)NC(=O)[C@H](Cc1ccccc1)NC(=O)c1ccc(C(C)(C)C)cc1)C(=O)N[C@@H](CO)C(=O)NCCOCCOCCOCCOCCOCCNC(=O)c1nc(NC(=O)CCNC(=O)c2cc(NC(=O)c3nc(NC(=O)CCCNC(=O)c4nc(NC(=O)c5nc(CC(=O)CCNC(=O)c6cc(NC(=O)c7nccn7C)cn6C)cn5C)cn4C)cn3C)cn2C)cn1C [Compound 104],–,> 500 nM
CCN(CC)CCCC[C@H](NC(=O)[C@H](CC(C)C)NC(=O)[C@H](C)NC(=O)[C@H](Cc1ccccc1)NC(=O)c1ccc(C(C)(C)C)cc1)C(=O)N[C@@H](CO)C(=O)NCCOCCOCCOCCOCCOCCNC(=O)c1nc(NC(=O)c2cc(NC(=O)c3cc(NC(=O)c4nc(NC(=O)CCCNC(=O)c5cc(NC(=O)c6nc(NC(=O)CCNC(=O)c7cc(NC(=O)c8nccn8C)cn7C)cn6C)cn5C)cn4C)cn3C)cn2C)cn1C [Compound 105],–,> 500 nM
CCN(CC)CCCC[C@H](NC(=O)[C@H](CC(C)C)NC(=O)[C@H](C)NC(=O)[C@H](Cc1ccccc1)NC(=O)c1ccc(C(C)(C)C)cc1)C(=O)N[C@@H](CO)C(=O)NCCOCCOCCOCCOCCOCCNC(=O)c1nc(NC(=O)CCNC(=O)c2cc(NC(=O)c3nc(NC(=O)CCCNC(=O)c4cc(NC(=O)c5nc(NC(=O)c6cc(NC(=O)c7cc(NC(=O)c8nccn8C)cn7C)cn6C)cn5C)cn4C)cn3C)cn2C)cn1C [Compound 106],–,> 500 nM
CCN(CC)CCCC[C@H](NC(=O)[C@H](CC(C)C)NC(=O)[C@H](C)NC(=O)[C@H](Cc1ccccc1)NC(=O)c1ccc(C(C)(C)C)cc1)C(=O)N[C@@H](CO)C(=O)NCCOCCOCCOCCOCCOCCNC(=O)c1nc(NC(=O)CCNC(=O)c2cc(NC(=O)c3nc(NC(=O)CCCNC(=O)c4cc(NC(=O)c5nc(NC(=O)c6cc(NC(=O)c7cccn7C)cn6C)cn5C)cn4C)cn3C)cn2C)cn1C [Compound 107],–,> 500 nM
CCN(CC)CCCC[C@H](NC(=O)[C@H](CC(C)C)NC(=O)[C@H](C)NC(=O)[C@H](Cc1ccccc1)NC(=O)c1ccc(C(C)(C)C)cc1)C(=O)N[C@@H](CO)C(=O)NCCOCCOCCOCCOCCOCCNC(=O)c1nc(NC(=O)CCNC(=O)c2cc(NC(=O)c3nc(NC(=O)[C@H](N)CCNC(=O)c4cc(NC(=O)c5nc(NC(=O)c6cc(NC(=O)c7cccn7C)cn6C)cn5C)cn4C)cn3C)cn2C)cn1C [Compound 108],–,100 to 500 nM
CCN(CC)CCCC[C@H](NC(=O)[C@H](CC(C)C)NC(=O)[C@H](C)NC(=O)[C@H](Cc1ccccc1)NC(=O)c1ccc(C(C)(C)C)cc1)C(=O)N[C@@H](CO)C(=O)NCCOCCOCCOCCOCCOCCNC(=O)c1nc(NC(=O)CCNC(=O)c2cc(NC(=O)c3nc(NC(=O)[C@@H](CCNC(=O)c4cc(NC(=O)c5nc(NC(=O)c6cc(NC(=O)c7cccn7C)cn6C)cn5C)cn4C)NC(C)=O)cn3C)cn2C)cn1C [Compound 109],–,> 500 nM
CCN(CC)CCCC[C@H](NC(=O)[C@H](CC(C)C)NC(=O)[C@H](C)NC(=O)[C@H](Cc1ccccc1)NC(=O)c1ccc(C(C)(C)C)cc1)C(=O)N[C@@H](CO)C(=O)NCCOCCOCCOCCOCCOCCNC(=O)c1cc(NC(=O)c2nc(NC(=O)CCCNC(=O)c3cc(NC(=O)c4nc(NC(=O)CCNC(=O)c5cc(NC(=O)c6nccn6C)cn5C)cn4C)cn3C)cn2C)cn1C [Compound 110],–,> 500 nM
CCN(CC)CCCC[C@H](NC(=O)[C@H](CC(C)C)NC(=O)[C@H](C)NC(=O)[C@H](Cc1ccccc1)NC(=O)c1ccc(C(C)(C)C)cc1)C(=O)N[C@@H](CO)C(=O)NCCOCCOCCOCCOCCOCCNC(=O)c1cc(NC(=O)c2nc(NC(=O)[C@H](N)CCNC(=O)c3cc(NC(=O)c4nc(NC(=O)CCNC(=O)c5cc(NC(=O)c6nccn6C)cn5C)cn4C)cn3C)cn2C)cn1C [Compound 111],–,> 500 nM
CCN(CC)CCCC[C@H](NC(=O)[C@H](CC(C)C)NC(=O)[C@H](C)NC(=O)[C@H](Cc1ccccc1)NC(=O)c1ccc(C(C)(C)C)cc1)C(=O)N[C@@H](CO)C(=O)NCCOCCOCCOCCOCCOCCNC(=O)c1cc(NC(=O)c2nc(NC(=O)[C@@H](CCNC(=O)c3cc(NC(=O)c4nc(NC(=O)CCNC(=O)c5cc(NC(=O)c6nccn6C)cn5C)cn4C)cn3C)NC(C)=O)cn2C)cn1C [Compound 112],–,> 500 nM
CCN(CC)CCCC[C@H](NC(=O)[C@H](CC(C)C)NC(=O)[C@H](C)NC(=O)[C@H](Cc1ccccc1)NC(=O)c1ccc(C(C)(C)C)cc1)C(=O)N[C@@H](CO)C(=O)NCCOCCOCCOCCOCCOCCNC(=O)c1cc(NC(=O)c2cc(NC(=O)c3nc(NC(=O)c4cc(NC(=O)CCCNC(=O)c5nc(NC(=O)CCNC(=O)c6cc(NC(=O)c7nccn7C)cn6C)cn5C)cn4C)cn3C)cn2C)cn1C [Compound 113],–,> 500 nM
CCN(CC)CCCC[C@H](NC(=O)[C@H](CC(C)C)NC(=O)[C@H](C)NC(=O)[C@H](Cc1ccccc1)NC(=O)c1ccc(C(C)(C)C)cc1)C(=O)N[C@@H](CO)C(=O)NCCOCCOCCOCCOCCOCCNC(=O)c1cc(NC(=O)c2cc(NC(=O)c3nc(NC(=O)c4cc(NC(=O)[C@@H](CCNC(=O)c5nc(NC(=O)CCNC(=O)c6cc(NC(=O)c7nccn7C)cn6C)cn5C)NC(C)=O)cn4C)cn3C)cn2C)cn1C [Compound 114] (I: {Benzoyl(4-tBu)}-FAL[Lys(Et2)]S / II: Ac-[dDab](ImPyβIm)[X1][4Amino1MeIm2CO][X1][X1]; linker I:C-II:C via HN(CH2CH2O)5CH2CH2NH),–,> 500 nM
CCN(CC)CCCC[C@H](NC(=O)[C@H](CC(C)C)NC(=O)[C@H](C)NC(=O)[C@H](Cc1ccccc1)NC(=O)c1ccc(C(C)(C)C)cc1)C(=O)N[C@@H](CO)C(=O)NCCOCCOCCOCCOCCOCCNC(=O)c1cc(NC(=O)c2nc(NC(=O)c3cc(NC(=O)CCCNC(=O)c4nc(NC(=O)CCNC(=O)c5cc(NC(=O)c6nccn6C)cn5C)cn4C)cn3C)cn2C)cn1C [Compound 115],–,> 500 nM
CCN(CC)CCCC[C@H](NC(=O)[C@H](CC(C)C)NC(=O)[C@H](C)NC(=O)[C@H](Cc1ccccc1)NC(=O)c1ccc(C(C)(C)C)cc1)C(=O)N[C@@H](CO)C(=O)NCCOCCOCCOCCOCCOCCNC(=O)c1cc(NC(=O)c2nc(NC(=O)c3cc(NC(=O)[C@H](N)CCNC(=O)c4nc(NC(=O)CCNC(=O)c5cc(NC(=O)c6nccn6C)cn5C)cn4C)cn3C)cn2C)cn1C [Compound 116],–,> 500 nM
